These results are taken from publication PMC10682503, “Structural and functional basis of inositol hexaphosphate stimulation of NHEJ through stabilization of Ku-XLF interaction” (Nucleic Acids Research, 2023).

Test [1] addresses Ku-DNA interaction (Homo sapiens, UniProt P12956+P13010). The test can be described thus: Single-molecule colocalization (TIRF) of Ku-AF647 on 18 bp DNA. The following applies: IP6 10 μM. Type of test: binding. How it is done: Single molecule labelling, and flow channel preparation for single-molecule colocalization experiment are described in Supplemental Information. A single-molecule experiment was performed on a Total Internal Reflection Fluorescence (TIRF) microscope equipped with an inverted oil immersion objective (×100, 1.49 NA lens) coupled to 532 nm (Ultra-Laser, MGL-FN-532) and 639 nm (Ultra-Laser, MGL-FN-639) excitation lasers to excite the sample at TIRF illumination. A dichroic beam splitter (Semrock, Di03-635-t1) was used to split green and red signals, which were passed through narrow bandpass filters (Semrock, FF01-582/64 and FF01-680/42). The signals were collected by an electron-multiplying charge-coupled device (EM-CCD) (Andor, iXon897). Fluorescence beads (Invitrogen, Life Technologies Corporation, Eugene, OR) were used to map corresponding signals in green and red channels.
The BSA in the flow channel was washed with T50 buffer. […] Movies of 1 000 frames (33 Hz) were recorded with the red laser and both lasers turned on for the first 900 frames and last 100 frames, respectively. Four independent experiments were performed where at least 20 movies were recorded for each experimental condition. […]
Fluorescent labelling of Ku. […] The labelled protein was determined to have 50 % labelling efficiency, spectrophotometrically. […]

Test [2] deals with T1, KuΔC (Ku heterodimer deleted of its C-terminal regions) (Homo sapiens, UniProt P12956+P13010).
T1 construct: heterodimer deleted of its C-terminal region (Ku70 1–544, Ku80 1–551); His-tag (10x His with TEV site, same vector as KuFL) (N); made in house; host or cells: Sf21 insect cells
T1 sequence (P12956 1-544, stated change not applied): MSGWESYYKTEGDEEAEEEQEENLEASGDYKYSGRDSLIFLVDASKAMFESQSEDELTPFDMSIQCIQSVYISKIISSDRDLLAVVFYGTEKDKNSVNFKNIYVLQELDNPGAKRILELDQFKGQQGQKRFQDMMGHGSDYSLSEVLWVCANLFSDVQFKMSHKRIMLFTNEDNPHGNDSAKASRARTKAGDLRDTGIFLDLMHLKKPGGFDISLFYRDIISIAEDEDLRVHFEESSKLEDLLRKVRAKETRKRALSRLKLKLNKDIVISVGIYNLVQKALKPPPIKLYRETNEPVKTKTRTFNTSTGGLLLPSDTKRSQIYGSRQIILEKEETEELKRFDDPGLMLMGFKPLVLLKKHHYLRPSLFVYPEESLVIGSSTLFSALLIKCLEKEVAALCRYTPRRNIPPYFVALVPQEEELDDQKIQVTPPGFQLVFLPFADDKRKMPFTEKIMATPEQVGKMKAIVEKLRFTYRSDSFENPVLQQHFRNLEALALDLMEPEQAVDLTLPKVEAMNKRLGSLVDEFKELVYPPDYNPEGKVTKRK
T1 sequence (P13010 1-551, stated change not applied): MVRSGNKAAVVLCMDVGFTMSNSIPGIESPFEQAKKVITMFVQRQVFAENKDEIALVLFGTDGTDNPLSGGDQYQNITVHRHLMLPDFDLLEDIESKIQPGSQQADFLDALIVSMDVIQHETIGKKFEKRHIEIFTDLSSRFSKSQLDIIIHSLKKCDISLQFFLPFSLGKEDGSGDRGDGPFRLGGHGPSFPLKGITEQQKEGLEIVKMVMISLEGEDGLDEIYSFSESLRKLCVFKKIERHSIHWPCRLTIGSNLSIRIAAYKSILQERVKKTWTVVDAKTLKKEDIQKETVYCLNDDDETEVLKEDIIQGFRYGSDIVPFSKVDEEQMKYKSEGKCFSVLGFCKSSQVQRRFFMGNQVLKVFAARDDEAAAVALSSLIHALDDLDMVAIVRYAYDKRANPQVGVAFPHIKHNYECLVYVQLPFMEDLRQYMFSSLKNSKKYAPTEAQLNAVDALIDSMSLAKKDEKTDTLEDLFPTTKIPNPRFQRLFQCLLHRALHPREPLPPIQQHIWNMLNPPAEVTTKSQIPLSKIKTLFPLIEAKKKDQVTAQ
The test can be described thus: ITC, KuΔC with IP6. Type of test: binding. How it is done:
Purification of Ku full-length (KuFL) for cryo-EM experiments was carried out as described previously ([5]). Expression and purification of KuFL for biophysical experiments was carried out as described previously ([20]). The full-length human Ku heterodimer subunits (Ku70 1–609, Ku80 1–732) were cloned into a Multibac vector ([21]). The construct has a 10× His-tag and a TEV site on the N-terminus of Ku80 and no-tag on Ku70. Protein production was initiated in Sf21 cells by infection with the baculovirus stock at MOI of 5 × 10^−3 and cells were collected 5–6 days after the infection (3–4 days after the proliferation arrest). Cells were sonicated and the supernatant was incubated with Benzonase (300 units for 30 min at 4°C). The Ku heterodimer was purified on a NiNTA-Agarose affinity column (Protino, Macherey Nagel) with a 1 M NaCl wash step to remove DNA excess. The eluted Ku was then bound onto an anion exchange column (Resource Q, Cytiva) equilibrated in 20 mM Tris pH 8.0, 50 mM NaCl, 50 mM KCl, 10 mM β-mercaptoethanol and eluted with a salt gradient. […]
Calorimetry. Interactions between KuFL and inositol phosphates (IPs) (IP6 and IP6 analogues) were determined by Isothermal Titration Calorimetry (ITC) using a VP-ITC calorimeter (Malvern). […] The free energy of binding (ΔG) and the entropy (ΔS) were determined using the classical thermodynamic formula, ΔG = - RT ln(Ka) and ΔG = ΔH - TΔS. […]
On the technique in general: Isothermal titration calorimetry measures the heat released or taken up as one component is titrated into another.

Chain of Ku-DNA interaction (P12956 whole entry): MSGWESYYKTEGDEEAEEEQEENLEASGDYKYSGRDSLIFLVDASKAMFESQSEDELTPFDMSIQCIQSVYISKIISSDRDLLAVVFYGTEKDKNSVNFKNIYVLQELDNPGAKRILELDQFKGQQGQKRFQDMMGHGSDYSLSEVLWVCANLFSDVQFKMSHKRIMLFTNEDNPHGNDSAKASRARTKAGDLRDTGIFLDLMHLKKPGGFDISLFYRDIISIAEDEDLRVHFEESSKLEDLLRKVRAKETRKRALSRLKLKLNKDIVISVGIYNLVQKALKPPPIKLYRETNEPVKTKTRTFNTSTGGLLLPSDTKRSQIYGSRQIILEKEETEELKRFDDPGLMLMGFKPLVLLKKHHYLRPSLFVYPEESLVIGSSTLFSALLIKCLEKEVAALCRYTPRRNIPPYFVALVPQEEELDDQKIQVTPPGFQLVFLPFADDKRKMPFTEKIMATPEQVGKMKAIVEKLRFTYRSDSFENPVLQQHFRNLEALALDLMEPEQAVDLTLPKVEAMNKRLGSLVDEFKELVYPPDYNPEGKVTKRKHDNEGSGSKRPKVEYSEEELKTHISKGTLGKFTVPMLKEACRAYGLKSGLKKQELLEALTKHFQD
Chain of Ku-DNA interaction (P13010 whole entry): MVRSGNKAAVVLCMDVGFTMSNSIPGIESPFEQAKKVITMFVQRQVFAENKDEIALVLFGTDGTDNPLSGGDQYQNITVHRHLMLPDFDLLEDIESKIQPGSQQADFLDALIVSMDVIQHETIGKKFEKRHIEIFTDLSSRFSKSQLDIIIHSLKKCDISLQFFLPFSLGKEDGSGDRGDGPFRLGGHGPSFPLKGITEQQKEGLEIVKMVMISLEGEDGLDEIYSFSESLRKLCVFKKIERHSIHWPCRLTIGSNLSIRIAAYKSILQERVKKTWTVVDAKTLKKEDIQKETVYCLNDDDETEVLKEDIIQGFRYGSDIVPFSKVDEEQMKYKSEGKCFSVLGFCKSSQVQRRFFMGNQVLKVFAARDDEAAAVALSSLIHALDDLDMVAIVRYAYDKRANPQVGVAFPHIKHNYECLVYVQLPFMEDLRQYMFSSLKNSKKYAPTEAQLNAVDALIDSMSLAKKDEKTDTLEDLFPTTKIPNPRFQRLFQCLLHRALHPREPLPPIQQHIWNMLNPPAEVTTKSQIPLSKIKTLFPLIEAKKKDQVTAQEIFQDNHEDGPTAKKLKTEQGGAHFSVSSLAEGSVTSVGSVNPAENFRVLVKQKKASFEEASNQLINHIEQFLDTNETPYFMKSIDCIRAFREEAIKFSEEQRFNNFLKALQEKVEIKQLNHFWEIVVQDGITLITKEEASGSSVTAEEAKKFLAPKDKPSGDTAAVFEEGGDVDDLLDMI

In the case of `O=P(O)(O)O[C@H]1[C@H](OP(=O)(O)O)[C@@H](OP(=O)(O)O)[C@H](OP(=O)(O)O)[C@@H](OP(=O)(O)O)[C@H]1OP(=O)(O)O` [IP6, inositol hexaphosphate], in test [1], the “kinetic dissociation constant (kOFF) of Ku from dsDNA” value is given as “decreases” and the “residence times of Ku on DNA” value was “slightly increases”. For the same compound, in test [2], the “weaker affinity of KuΔC compared with KuFL” value is given as around 50 fold. Binding in test [2] (KuΔC construct) was characterised by a dissociation constant (Kd) of 178 ± 12 nM.

The Kd is a measure of binding affinity in units of concentration. High values mean weaker binding, low ones tighter binding.
